Experimental data: patent US10118942B2, “Toll-like receptor 2 ligands and methods of making and using thereof” (H. LEE MOFFITT CANCER CENTER AND RESEARCH INSTITUTE, INC., priority 2015, dated 2018)
“Also recorded” adds a separate entry of the source. Where two headings read alike, the source gives them in different places. Each block holds one molecule with its values, some of them ahead of it.

How the values were obtained:
TLR2 [1] = target: T1, TLR2 (Homo sapiens, UniProt O60603); test: In vitro TLR2 functional bioassay (NF-κB luciferase reporter); assay type: cell-based; conditions: HEK-293/hTLR2 cells; for agonist activity compared to TLR2 agonist controls (Pam2CSK4, Pam3CSK4, HKLM): all at 1 μg/mL
Description: The in vitro TLR2 functional bioassay was developed and optimized for use in high-throughput screening of soluble compound libraries to identify both TLR2 agonists and antagonists. The bioassay measures the induction of NF-κB signaling via TLR2 in HEK-293/hTLR2 cells (Invivogen) and parental HEK-293 cells as a negative control. Cells were seeded at a density of 40,000 per well using a WellMate microplate dispenser (Thermo Fisher Scientific/Matrix) in black 96-well plates with opaque white wells (PerkinElmer, Waltham, Mass.) and then incubated at 37° C. On day 2, the cells were transiently transfected with pNifty-Luc(InvivoGen, San Diego, Calif.), an NF-κB inducible reporter plasmid expressing the luciferase reporter gene (Schindler et al., Three NF-kappa B binding sites in the human E-selectin gene required for maximal tumor necrosis factor alpha-induced expression. Mol Cell Biol 1994, 14(9):5820-31) using an optimized 4:1 ratio by volume of FugeneHD transfection reagent (Promega, Madison, Wis.) to pNifty-Luc plasmid DNA (1 μg/mL). On day 3, the cells were stimulated with either test peptides or controls adjusted to a final concentration of 1 μg/mL using a NanoDrop spectrophotometer, ND1000 (Thermo Fisher Scientific). Synthetic di- and triacylated LP ligands, Pam2CSK4 and Pam3CSK4 (InvivoGen), were used as positive controls. TNF-α (InvivoGen) was also used as a transfection control that induces NF-κB independently of TLR2. On day 4 after 24 h of peptide stimulation, luciferase induced activity by the induction of NF-κB was measured. The medium was aspirated from the wells using an ELx405 SelectCW plate washer (BioTek, Winooski, Vt.), and 150 μg/mL D-luciferin (Gold Biotechnology, St. Louis, Mo.) was dispensed using the microplate dispensor. The plates were incubated at 37° C. for 5 min. The luminescence intensity was measured using the standard luminescence protocol on a Victor X4 multilabel plate reader equipped with a plate stacker for readout of multiple plates at a time (PerkinElmer, Waltham, Mass.). For each in vitro TLR2 bioassay, at least three different experiments were performed in triplicate (n≥3). Data were analyzed with GraphPad Prism software, and curves were generated with the appropriate nonlinear fit regression analysis.
Target sequence in this assay (O60603 21-784): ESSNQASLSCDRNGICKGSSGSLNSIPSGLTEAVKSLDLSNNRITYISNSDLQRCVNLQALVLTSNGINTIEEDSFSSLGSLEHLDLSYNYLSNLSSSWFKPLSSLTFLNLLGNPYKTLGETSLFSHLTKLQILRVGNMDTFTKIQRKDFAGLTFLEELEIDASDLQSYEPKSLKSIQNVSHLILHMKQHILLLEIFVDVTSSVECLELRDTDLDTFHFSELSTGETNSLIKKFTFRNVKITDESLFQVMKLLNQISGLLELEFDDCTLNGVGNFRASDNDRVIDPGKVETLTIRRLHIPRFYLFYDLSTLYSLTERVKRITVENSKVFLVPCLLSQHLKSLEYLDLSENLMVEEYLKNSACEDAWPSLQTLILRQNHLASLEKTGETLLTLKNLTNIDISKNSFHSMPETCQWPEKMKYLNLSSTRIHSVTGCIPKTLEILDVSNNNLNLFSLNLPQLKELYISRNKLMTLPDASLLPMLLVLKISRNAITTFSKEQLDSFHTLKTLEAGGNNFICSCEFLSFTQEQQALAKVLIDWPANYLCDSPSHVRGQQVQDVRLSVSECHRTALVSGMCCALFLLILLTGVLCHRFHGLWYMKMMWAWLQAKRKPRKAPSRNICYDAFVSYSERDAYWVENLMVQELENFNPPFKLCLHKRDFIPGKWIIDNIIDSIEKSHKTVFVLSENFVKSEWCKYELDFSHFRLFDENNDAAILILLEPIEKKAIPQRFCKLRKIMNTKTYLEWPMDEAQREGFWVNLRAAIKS

TLR2 [2] = target: T1, TLR2; test: In cyto Europium TRF competition binding assay; set-up: SU.86.86 pancreatic cells with endogenous expression of TLR2 were used for the assay; host or cells: SU.86.86 pancreatic adenocarcinoma cells; conditions: competition with 90 nM Eu-labeled compound 11, SU.86.86 cells, 1 h 37° C.; read-out: TLR2 Binding Affinity (Ki)
Description: Europium Time-Resolved Fluorescence (TRF) binding assays were performed as described in Handle et al. with slight modifications using SU.86.86 cells plated in 96-well black plates with white opaque wells (PerkinElmer) (Handl et al., Lanthanide-based time-resolved fluorescence of in cyto ligand-receptor interactions. Anal Biochem 2004, 330(2):242-50; Handl et al., Development of a lanthanide-based assay for detection of receptor-ligand interactions at the delta-opioid receptor. Anal Biochem 2005, 343(2):299-307; Josan et al., Solid-phase synthetic strategy and bioevaluation of a labeled delta-opioid receptor ligand Dmt-Tic-Lys for in vivo imaging. Org Lett 2009, 11(12):2479-82). Cells were grown in the 96-well plates for 2 days reaching approximately 80% confluency. Competition binding assays were performed to test the TLR2 binding specificity of the test ligand using SU.86.86 cells. On the day of the experiment, the cell culture media was aspirated and 50 μL of nonlabeled test ligand was added in a series of decreasing concentrations (1 μM to 0.01 nM) followed by 50 μL of the competing Eu-labeled ligand 11 (Huynh et al., Novel Toll-like Receptor 2 Ligands for Targeted Pancreatic Cancer Imaging and Immunotherapy. J Med Chem 2012) at a fixed concentration of 90 nM. Cells were incubated with labeled and unlabeled ligands for 1 h at 37° C. Following incubation, cells were washed three times to remove unbound ligand. Next, 100 μL of DELFIA Enhancement Solution (PerkinElmer) was added to each well. Cells were incubated for 30 min at 37° C. prior to reading. The plates were read on PerkinElmer VICTOR X4 Multilabel reader using the standard Europium TRF protocol. To determine the mean statistical analysis was performed using GraphPad Prism software. Binding of the monoacyl TLR2 ligand (compound 14 of Table 2) was tested using the (Eu)DTPA chelate version of the diacyl TLR2 ligand (compound 11 used in Huynh et al, Id.) in a time-resolved fluorescence competition binding assay. SU.86.86 pancreatic cells with endogenous expression of TLR2 were used for the assay.
Target sequence in this assay (O60603 21-784): as above

[3] = system: TLR2 expressing human pancreatic tumor xenografts (SU.86.86 cells); test: In vivo TLR2 selectivity (blocking) fluorescence imaging; set-up: species or system nude mice
Description: Female athymic nude mice 6-8 weeks old (Harlan) bearing human pancreatic tumor xenografts of SU.86.86 cells on the right flank were used. Mouse weights and tumor volumes were determined using caliper measurements and the formula: volume (mm3)=(length×width^2)/2. Images were acquired when the tumors reached an average size of 500 mm^3. For the blocked group, a co-injection of 100 nmol/kg of the fluorescently labeled Compound 16 plus 2 μmol/kg Pam2CSK4 (a 20-fold excess) was administered via tail vein injection; for the unblocked group, 100 nmol/kg Compound 16 was administered. Fluorescence images were acquired at time 0 and 24 h using the Caliper Xenogen IVIS200 system (PerkinElmer) with the 710-760 nm excitation and 810-875 nm emission filter set. The fluorescence was quantified using Living Image software, in which the quantified signals were corrected for both instrument and mouse background subtractions. The quantified fluorescence was then plotted using GraphPad Prism software and underwent statistical analysis using Student's t-test.

TLR2 [4] = target: T1, TLR2; conditions: Huynh et al.; read-out: binding affinity (Ki); cited from earlier work
Target sequence in this assay (O60603 21-784, species assumed): as the sequence (O60603 21-784) above

SU.86.86 cells = test: Cytotoxicity assay (Dojindo CCK8 Kit); assay type: cell-based, human; conditions: 24 hours, 21 to 2690 nM
Description: SU.86.86 were treated with Compound 16 for 24 hours over a range of concentrations (40 to 512 ng/mL corresponding to 21 to 2690 nM). Pam2CSK4 was added to SU.86.86 for 24 hours over the same range of concentrations (40 to 512 ng/mL). Three different experiments were performed in triplicate (n≥3). Data were analyzed with GraphPad Prism software.

EC50 (TLR2 [1]; 0.001 ng/mL to 10 μg/mL, read-out: EC50, TLR2 agonistic activity): 674 nM
agonist activity compared to TLR2 agonist controls (Pam2CSK4, Pam3CSK4, HKLM) (TLR2 [1]): significantly less agonist potency
Ki (TLR2 [2]): 22 nM
Molecule: CCCCCCCCCCCCCCCC(=O)OCCSC[C@H](NC(=O)COCC(=O)NCCCOCCOCCOCCCNC(C)=O)C(=O)NCC(=O)N[C@H](CO)C(=O)NCCCOCCOCCOCCCNC(=O)COCC(N)=O [Compound 14, Ac-Pego-Cys(S-[palmitoyloxyethyl])-Gly-DSer-PEGO-NH2]

Molecule: CCCCCCCCCCCCCCCC(=O)OCCSC[C@H](NC(=O)COCC(=O)NCCCOCCOCCOCCCNC(=O)c1ccc(C2=C(/C=C/C3=[N+](CCC)c4ccccc4C3(C)C)CCC/C2=C\C=C2\N(CCC)c3ccccc3C2(C)C)cc1)C(=O)NCC(=O)N[C@H](CO)C(=O)NCCCOCCOCCOCCCNC(=O)COCC(N)=O [Compound 16, IR780-Pego-Cys(S-[palmitoyloxyethyl])-Gly-DSer-PEGO-NH2]
IC50 (TLR2 [1]; 0.001 ng/mL to 10 μg/mL, read-out: IC50, inhibition of TLR2 agonistic activity of Pam2CSK4): 361 nM
agonist activity compared to TLR2 agonist controls (Pam2CSK4, Pam3CSK4, HKLM) (TLR2 [1]): significant decrease in agonist response
agonist activity compared to TLR2 agonist controls (Pam2CSK4, Pam3CSK4, HKLM) (TLR2 [1]; listed as compound 16): complete loss in agonist activity
mean tumor fluorescence, unblocked tumor/blocked tumor ([3]; 100 nmol/kg i.v., blocked with 2 μmol/kg Pam2CSK4 (20-fold excess), 24 h): 2.67 fold
tumor fluorescence in blocked versus unblocked group ([3]; 100 nmol/kg i.v., blocked with 2 μmol/kg Pam2CSK4, 24 h post-injection): significant reduction in the ex vivo fluorescence signal; also recorded: significant reduction in the tumor fluorescence
tumor fluorescence signal by in vivo imaging ([3]; 24 h post-injection): retention of fluorescence signal in the tumor
Ki (TLR2 [2]): 16 nM

Ki (TLR2 [2]): 91 nM
Molecule: CCCCCCCCCCCCCCCC(=O)OC[C@H](CSC[C@H](NC(=O)COCC(=O)NCCCOCCOCCOCCCNC(C)=O)C(=O)NCC(=O)N[C@H](CO)C(=O)NCCCOCCOCCOCCCNC(=O)COCC(N)=O)OC(=O)CCCCCCCCCCCCCCC [compound 10, reference compound]
Ki (TLR2 [4]): 24 nM

Molecule: Pam2CSK4 [reference compound]
cell viability (SU.86.86 cells): cell viability decreases at higher concentrations past 336 nM
